# In patent EP0711545B1, “Aqueous mild surfactants containing preparations for cosmetic and cleaning use” (priority 1994, dated 1996):
# Tested on: Rote Blutkörperchen
# Test: Red blood cell test (RBC test): lysis of blood cells and denaturation of released haemoglobin
# Type: cell-based
# Source text: Fettsäureamidopropylbetaine, abgeleitet von Fettsäuren unterschiedlicher Kettenlängen, werden mit Hilfe einer in-vitro-Methode, dem Rote-Blutkörperchen-Test (RBC), auf ihre physiologische Verträglichkeit untersucht.
# Hierbei werden zur Charakterisierung der typischen irritativen Wechselbeziehung von Tensiden mit intakten Zellstrukturen die Zerstörung der Blutzellen durch Lyse und die Denaturierung des freigesetzten Hämoglobins gemessen. Das Ergebnis stellt der Quotient aus Lyse (L) und Denaturierung (D) L/D dar. Je kleiner der L/D-Wert ist, desto reizender ist die Substanz bzw. Formulierung einzustufen.
# [1] = Table 1: single betaines, the smaller L/D, the more irritant
# [2] = Table 1: single fatty acid amidopropyl betaines
# [3] = Table 3: 10 % betaine + 5 % APG in water
# [4] = Table 3: 10 % betaine + 5 % LSSDNa in water
# [5] = Table 3: 10 % betaine + 5 % NaLSC in water
Structure (SMILES),L/D [1],Denaturierung (D) [2],Lyse (L) [2],Denaturierung (D) [3],L/D [3],Lyse (L) [3],Denaturierung (D) [4],L/D [4],Lyse (L) [4],Denaturierung (D) [5],L/D [5],Lyse (L) [5]
CCCCCCCC(=O)NCCC[N+](C)(C)CC(=O)[O-] [C8-Betain],>> 100,keine Hämolyse,keine Hämolyse,–,–,–,–,–,–,–,–,–
CCCCCCCCCC(=O)NCCC[N+](C)(C)CC(=O)[O-] [C10-Betain],>> 100,keine Hämolyse,keine Hämolyse,–,–,–,–,–,–,–,–,–
CCCCCCCCCCCC(=O)NCCC[N+](C)(C)CC(=O)[O-] [C12-Betain],"8,9",17,151,<1,>100,81,13,"3,8",49,18,"4,7",84
CCCCCCCCCCCCCC(=O)NCCC[N+](C)(C)CC(=O)[O-] [C14-Betain],"1,4","9,2",13,–,–,–,–,–,–,–,–,–
CCCCCCCCCCCCCCCC(=O)NCCC[N+](C)(C)CC(=O)[O-] [C16-Betain],"1,0","4,4","4,4",–,–,–,–,–,–,–,–,–
